Laboratory results reported in patent US4120864A, “1,2,4-4H-triazole derivatives” (Rohm and Haas Company, priority 1972, dated 1978).
Where two headings read alike, the source gives them in different places.

How the values were obtained:
[1] = system: wheat leaf rust, Puccinia recondita; assay: whole plant or invertebrate; format: in vivo; conditions: foliar
[2] = system: wheat leaf rust, Puccinia recondita; assay: whole plant or invertebrate; format: in vivo; conditions: foliar; remark: listed apart in the source
[3] = system: wheat leaf rust, Puccinia recondita; format: in vivo
[4] = system: wheat leaf rust, Puccinia recondita; assay: Foliar systemic activity on leaf rust; format: in vivo
Excerpt: Another type of systemic test was run in which pots of approximately 5 inch high wheat plants were sprayed with varying concentrations of the test compound. Thirty-six hours later they were sprayed six minutes in a rain machine which amounted to about one inch of normal rainfall. The plants were then placed in a greenhouse for 7 days and then inoculated with a spore suspension of wheat leaf rust, Puccinia recondita. About 7 days later lesion counts were made on ten leaves representing the sprayed leaves and new growth from each replicate and compared with similar pots of wheat plants which were untreated with a chemical and the percent disease control determined. Disease control on the new growth is a measure of systemic activity. The commercial product known by the trademarked name Plantvax, which is 2,3-dihydro-5-carboxanilido-6-methyl-1,4-oxathiin-4,4-dioxide, was used as a standard.

[5] = system: Pythium ultimum; conditions: in vivo

CCCCn1cnnc1SC(=O)c1ccc(OC)cc1 [Example 121, 3-(4-methoxybenzoylmercapto)-4-n-butyl-1,2,4-triazole]
pest or weed control at 280.212 g/ha ([1]; read-out: % Control (without rain), foliar, 0.25 lb.): 90% | pest or weed control at 1120.85 g/ha ([1]; read-out: % Control (without rain), foliar, 1 lb.): 98% | pest or weed control at 280.212 g/ha ([2]; read-out: % Control (with 1" of rain), foliar, 0.25 lb., 1" of rain): 100% | pest or weed control at 1120.85 g/ha ([2]; read-out: % Control (with 1" of rain), foliar, 1 lb., 1" of rain): 100% | % Systemic Wheat Leaf Rust Control ([3]; 2.5 ppm in soil): 98% | % Systemic Wheat Leaf Rust Control ([3]; 5 ppm in soil): 100% | % Systemic Wheat Leaf Rust Control ([3]; 10 ppm in soil): 100% | % Rust Control, New growth ([4]; 1/2 lb./100 gal.): 92% | % Rust Control, Sprayed Leaf ([4]; 1/2 lb./100 gal.): 95% | % Rust Control, New growth ([4]; 1/6 lb./100 gal.): 79% | % Rust Control, Sprayed Leaf ([4]; 1/6 lb./100 gal.): 81% | % Rust Control, New growth ([4]; 1/12 lb./100 gal.): 77% | % Rust Control, Sprayed Leaf ([4]; 1/12 lb./100 gal.): 91% | control of Pythium ultimum [5]: excellent control
